Data published in paper PMC8908507 (ACS Omega, 2022).
“Also recorded” adds a separate entry of the source.

Tests used:
MAO-B = biological target: T1, MAO-B (Homo sapiens, UniProt P27338); assay: MAO-B inhibition, recombinant enzyme, benzylamine substrate; type: biochemical; settings: for SI (MAO-B compared with MAO-A): IC50 (MAO-A)/IC50 (MAO-B); for IC50: IC50 MAO-B; for remaining activity at 1 µM: read-out: residual activity (%) MAO-B
T1 sequence (P27338 1-520): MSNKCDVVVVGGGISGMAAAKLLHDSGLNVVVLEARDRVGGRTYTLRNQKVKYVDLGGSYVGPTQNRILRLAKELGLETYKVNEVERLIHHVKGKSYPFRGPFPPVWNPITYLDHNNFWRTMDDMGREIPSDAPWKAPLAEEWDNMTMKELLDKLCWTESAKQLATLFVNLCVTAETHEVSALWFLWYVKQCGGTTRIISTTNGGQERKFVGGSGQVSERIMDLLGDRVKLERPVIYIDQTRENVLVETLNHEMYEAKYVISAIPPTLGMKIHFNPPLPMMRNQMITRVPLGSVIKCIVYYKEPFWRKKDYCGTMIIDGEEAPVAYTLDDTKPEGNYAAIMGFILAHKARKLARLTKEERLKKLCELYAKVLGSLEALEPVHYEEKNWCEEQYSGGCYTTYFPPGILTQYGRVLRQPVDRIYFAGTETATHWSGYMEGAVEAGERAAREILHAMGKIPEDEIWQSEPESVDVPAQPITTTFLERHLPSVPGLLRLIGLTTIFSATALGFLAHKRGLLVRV

BACE1 = BACE1 (Homo sapiens, UniProt P56817); assay: biochemical; settings: read-out: residual activity (%) BACE1
Sequence of BACE1 (P56817 46-501): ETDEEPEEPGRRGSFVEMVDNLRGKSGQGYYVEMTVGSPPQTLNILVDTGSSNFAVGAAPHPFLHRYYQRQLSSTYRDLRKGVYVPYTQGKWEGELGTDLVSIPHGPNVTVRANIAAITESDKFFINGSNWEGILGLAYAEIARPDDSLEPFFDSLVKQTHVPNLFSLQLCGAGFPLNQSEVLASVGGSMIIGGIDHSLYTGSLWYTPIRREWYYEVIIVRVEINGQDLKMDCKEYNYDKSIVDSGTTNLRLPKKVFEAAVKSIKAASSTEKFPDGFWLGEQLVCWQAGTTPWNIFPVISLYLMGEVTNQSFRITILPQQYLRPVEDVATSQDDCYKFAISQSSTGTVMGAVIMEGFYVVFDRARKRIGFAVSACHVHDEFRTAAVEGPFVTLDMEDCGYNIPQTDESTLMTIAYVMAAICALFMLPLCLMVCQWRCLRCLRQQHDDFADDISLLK

AChE = AChE (Electrophorus electricus, UniProt O42275); assay: AChE inhibition; settings: 10 μM
Sequence of AChE (O42275 24-633): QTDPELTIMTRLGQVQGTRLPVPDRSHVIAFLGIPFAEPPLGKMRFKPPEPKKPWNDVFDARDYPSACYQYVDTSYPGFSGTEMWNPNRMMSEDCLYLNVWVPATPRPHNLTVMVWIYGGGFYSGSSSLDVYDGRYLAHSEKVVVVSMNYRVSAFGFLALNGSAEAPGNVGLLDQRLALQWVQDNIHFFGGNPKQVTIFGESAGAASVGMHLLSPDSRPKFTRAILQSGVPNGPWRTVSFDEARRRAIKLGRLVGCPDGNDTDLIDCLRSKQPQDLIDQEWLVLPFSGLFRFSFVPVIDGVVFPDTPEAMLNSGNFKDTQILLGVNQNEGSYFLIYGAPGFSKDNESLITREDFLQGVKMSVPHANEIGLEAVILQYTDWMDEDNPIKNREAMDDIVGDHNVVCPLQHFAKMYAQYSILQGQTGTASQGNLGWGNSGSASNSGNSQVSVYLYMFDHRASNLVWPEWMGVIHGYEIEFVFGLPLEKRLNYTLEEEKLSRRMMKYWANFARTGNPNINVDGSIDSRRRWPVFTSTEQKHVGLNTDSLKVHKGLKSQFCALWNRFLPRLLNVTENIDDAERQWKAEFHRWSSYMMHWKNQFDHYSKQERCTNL

MAO-A = biological target: T2, MAO-A (Homo sapiens, UniProt P21397); assay: biochemical; settings: for remaining activity at 10 µM: read-out: residual activity (%) MAO-A
T2 sequence (P21397 1-527): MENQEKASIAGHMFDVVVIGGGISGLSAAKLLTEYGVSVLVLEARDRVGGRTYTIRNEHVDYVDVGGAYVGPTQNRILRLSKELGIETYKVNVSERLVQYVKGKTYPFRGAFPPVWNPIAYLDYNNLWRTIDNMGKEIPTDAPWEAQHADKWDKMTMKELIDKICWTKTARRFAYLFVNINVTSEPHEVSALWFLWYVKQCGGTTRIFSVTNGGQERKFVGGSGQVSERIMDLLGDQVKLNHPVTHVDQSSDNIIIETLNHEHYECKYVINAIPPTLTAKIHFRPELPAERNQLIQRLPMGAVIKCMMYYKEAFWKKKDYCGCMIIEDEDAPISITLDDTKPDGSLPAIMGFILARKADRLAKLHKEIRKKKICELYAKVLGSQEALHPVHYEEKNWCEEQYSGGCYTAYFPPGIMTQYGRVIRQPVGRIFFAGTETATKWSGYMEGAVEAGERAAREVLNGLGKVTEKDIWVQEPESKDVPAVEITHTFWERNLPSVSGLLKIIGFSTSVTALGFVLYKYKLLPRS

BChE = BChE (Equus caballus, UniProt P81908); settings: 10 μM
Sequence of BChE (P81908 whole entry): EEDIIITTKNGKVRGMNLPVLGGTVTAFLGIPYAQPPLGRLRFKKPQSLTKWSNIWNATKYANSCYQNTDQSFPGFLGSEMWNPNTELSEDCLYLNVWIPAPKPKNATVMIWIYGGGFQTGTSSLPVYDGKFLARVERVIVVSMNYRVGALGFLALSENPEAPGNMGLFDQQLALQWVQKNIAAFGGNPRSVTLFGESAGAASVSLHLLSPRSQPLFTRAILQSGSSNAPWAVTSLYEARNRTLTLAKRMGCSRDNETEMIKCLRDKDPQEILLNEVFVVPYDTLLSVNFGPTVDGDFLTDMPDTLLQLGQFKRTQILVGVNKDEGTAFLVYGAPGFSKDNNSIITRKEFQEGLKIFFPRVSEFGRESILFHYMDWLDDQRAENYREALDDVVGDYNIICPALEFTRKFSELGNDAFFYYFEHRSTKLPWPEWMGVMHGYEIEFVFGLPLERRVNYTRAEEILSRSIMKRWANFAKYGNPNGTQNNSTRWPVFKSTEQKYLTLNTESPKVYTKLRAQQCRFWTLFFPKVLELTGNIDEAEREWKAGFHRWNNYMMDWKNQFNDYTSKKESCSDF

Vero cells [1] = assay: Cytotoxicity on Vero cells, MTT method; type: cell-based, African green monkey; settings: 100 μg/mL, 24 h
Vero cells [2] = assay: Intracellular ROS assay in H2O2-treated Vero cells; type: cell-based, African green monkey; settings: 24 h drug treatment, vs H2O2-treated control
[3] = Cytotoxicity on Vero cells, MTT method; type: cell-based, African green monkey; settings: African green monkey, Vero cells (normal kidney epithelial cell line)

Compound | SI (MAO-B compared with MAO-A) (MAO-B) | IC50 (MAO-B) [µM] | remaining activity at 1 µM (MAO-B) [%] | remaining activity at 10 µM (BACE1) [%] | residual activity (%) AChE (AChE) [%] | IC50 (MAO-A) [µM] | remaining activity at 10 µM (MAO-A) [%] | residual activity (%) BChE (BChE) [%] | toxicity by cellular morphology, phase-contrast microscopy (Vero cells [1]) | intracellular ROS scavenging (Vero cells [2]) | viability at 24 h, 60 μg/mL [3] [%]
O=C(/C=C/C=C/c1ccccc1)c1ccc(Cl)cc1 [MK1, (2E,4E)-1-(4-Chlorophenyl)-5-phenylpenta-2,4-dien-1-one] | 1498.2 | 0.0112 ± 0.00165 | 2.17 ± 1.49 | 77.1 ± 0.0087 | 84.0 ± 0.23 | 16.7 ± 0.4 | 83 ± 2.71 | 94.1 ± 4.72 | – | – | –
O=C(/C=C/C=C/c1ccc(Br)cc1)c1ccc(Cl)cc1 [MK2, (2E,4E)-5-(4-Bromophenyl)-1-(4-chlorophenyl)penta-2,4-dien-1-one] | 232.4 | 0.101 ± 0.00163 | 14.3 ± 0.43 | 81.4 ± 0.97 | 82.4 ± 0.98 | 23.5 ± 0.86 | 97.8 ± 0.16 | 95.4 ± 2.86 | – | – | –
COc1ccc(/C=C/C=C/C(=O)c2ccc(Cl)cc2)cc1 [MK3, (2E,4E)-1-(4-Chlorophenyl)-5-(4-methoxyphenyl)penta-2,4-dien-1-one] | 1290.2 | 0.0131 ± 0.00081 | 5.81 ± 0.27 | 84.8 ± 0.53 | 81.4 ± 1.06 | 16.9 ± 0.5 | 73.6 ± 2.83 | 83.2 ± 0.46 | – | – | –
O=C(/C=C/C=C/c1ccc(F)cc1)c1ccc(Cl)cc1 [MK4, (2E,4E)-1-(4-Chlorophenyl)-5-(4-fluorophenyl)penta-2,4-dien-1-one] | 1609.8 | 0.00967 ± 0.00047 | 1.61 ± 2.28 | 72.5 ± 0.9 | 90.7 ± 0.57 | 15.6 ± 0.63 | 77 ± 6.2 | 94.9 ± 7.16 | – | – | –
O=C(/C=C/C=C/c1ccc([N+](=O)[O-])cc1)c1ccc(Cl)cc1 [MK5, (2E,4E)-1-(4-Chlorophenyl)-5-(4-nitrophenyl)penta-2,4-dien-1-one] | 4783.0 | 0.00402 ± 0.00013 | 5.81 ± 0.27 | 73.3 ± 2.51 | 74.1 ± 1.42 | 19.2 ± 0.94 | 72.9 ± 0.44 | 71.6 ± 1.05 | no signs of toxicity | significant scavenging effect of reactive oxygen species; also recorded: significant ROS scavenging effect | –
O=C(/C=C/C=C/c1ccc(Br)cc1)c1ccc(Br)cc1 [MK7, (2E,4E)-1,5-Bis(4-bromophenyl)penta-2,4-dien-1-one] | 1400.0 | 0.0155 ± 6e-05 | 8.9 ± 0.15 | 84.5 ± 0.91 | 75.8 ± 0.73 | 21.7 ± 2.01 | 85.4 ± 1.99 | 99.2 ± 1.09 | – | – | –
COc1ccc(/C=C/C=C/C(=O)c2ccc(Br)cc2)cc1 [MK8, (2E,4E)-1-(4-Bromophenyl)-5-(4-methoxyphenyl)penta-2,4-dien-1-one] | 1443.8 | 0.0167 ± 0.00062 | 7.85 ± 0.22 | 80.9 ± 1.67 | 86.1 ± 5.10 | 24.1 ± 0.038 | 69.6 ± 2.03 | 80.7 ± 7.70 | – | – | –
O=C(/C=C/C=C/c1ccc(F)cc1)c1ccc(Br)cc1 [MK9, (2E,4E)-1-(4-Bromophenyl)-5-(4-fluorophenyl)penta-2,4-dien-1-one] | 1671.7 | 0.0135 ± 0.00106 | 2.6 ± 0.57 | 65 ± 1.61 | 57.7 ± 0.00 | 22.5 ± 0.047 | 74.9 ± 1.29 | 87.4 ± 6.95 | – | – | –
O=C(/C=C/C=C/c1ccc([N+](=O)[O-])cc1)c1ccc(Br)cc1 [MK10, (2E,4E)-1-(4-Bromophenyl)-5-(4-nitrophenyl)penta-2,4-dien-1-one] | 481.0 | 0.0406 ± 0.00087 | 3.4 ± 0.14 | 69.4 ± 1.03 | 84.0 ± 0.73 | 19.5 ± 0.59 | 69.1 ± 1.32 | 87.9 ± 1.86 | – | – | –
O=C(/C=C/C=C/c1ccc(Br)cc1)c1ccc(F)cc1 [MK11, (2E,4E)-5-(4-Bromophenyl)-1-(4-fluorophenyl)penta-2,4-dien-1-one] | 1394.7 | 0.0198 ± 0.00053 | 3.45 ± 0.21 | 71.4 ± 1.03 | 77.8 ± 2.19 | 27.5 ± 0.82 | 76.9 ± 3.02 | 89.2 ± 6.58 | – | – | –
O=C(/C=C/C=C/c1ccc([N+](=O)[O-])cc1)c1ccc(F)cc1 [MK13, (2E,4E)-1-(4-Fluorophenyl)-5-(4-nitrophenyl)penta-2,4-dien-1-one] | 5635.2 | 0.00424 ± 0.00013 | 1.95 ± 0.067 | 76.7 ± 0.64 | 91.5 ± 0.80 | 23.7 ± 0.17 | 71.5 ± 8.06 | 97.8 ± 1.55 | – | – | –
COc1ccc(/C=C/C=C/C(=O)c2ccccc2)cc1 [MK14, (2E,4E)-5-(4-Methoxyphenyl)-1-phenylpenta-2,4-dien-1-one] | 3871.5 | 0.00489 ± 0.00017 | -0.95 | 77.3 ± 1.23 | 84.7 ± 5.62 | 18.9 ± 1.02 | 61.4 ± 6.27 | 89.0 ± 1.55 | no signs of toxicity | significant scavenging effect of reactive oxygen species; also recorded: significant ROS scavenging effect | > 80
O=C(/C=C/C=C/c1ccc([N+](=O)[O-])cc1)c1ccccc1 [MK15, (2E,4E)-5-(4-Nitrophenyl)-1-phenylpenta-2,4-dien-1-one] | 1025.8 | 0.0124 ± 0.00792 | -3.52 | 89.5 ± 0.92 | 68.8 ± 0.80 | 12.7 ± 0.57 | 54.4 ± 5.37 | 80.2 ± 1.55 | – | – | –
